Data reported in the supplement of paper PMC10307832.

Tests used:
Assay in all cases: relative viability (nuclei count vs DMSO), 5 days (fraction); higher = more cells survive
Cediranib + Palbociclib = compound: COc1cc2c(Oc3ccc4[nH]c(C)cc4c3F)ncnc2cc1OCCCN1CCCC1 [Cediranib] + CC(=O)c1c(C)c2cnc(Nc3ccc(N4CCNCC4)cn3)nc2n(C2CCCC2)c1=O [Palbociclib] (partner 0.5 µM)
Procedure, shortened: (§1)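 Lung cancer cell lines, seeded in 1536-well plates, were treated the following day by pin tool with a single drug or with five library-drug doses (not always all listed) in √10 steps on top of a fixed anchor-drug dose. Cells were fixed and nuclei stained in one step after 5 days, and nuclei were counted. Relative viability is the nuclei count for treated wells divided by that for vehicle wells, reported as medians of duplicate plates.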

Cediranib + Decitabine = compound: COc1cc2c(Oc3ccc4[nH]c(C)cc4c3F)ncnc2cc1OCCCN1CCCC1 [Cediranib] + Nc1ncn([C@H]2C[C@H](O)[C@@H](CO)O2)c(=O)n1 [Decitabine] (partner 2 µM)
Procedure, shortened: as §1

Decitabine + Foretinib = compound: Nc1ncn([C@H]2C[C@H](O)[C@@H](CO)O2)c(=O)n1 [Decitabine] + COc1cc2c(Oc3ccc(NC(=O)C4(C(=O)Nc5ccc(F)cc5)CC4)cc3F)ccnc2cc1OCCCN1CCOCC1 [Foretinib] (partner 0.25 µM)
Procedure, shortened: as §1

[1] = compound: O=C(C[C@H]1NCCC[C@@H]1O)Cn1cnc2cc(Br)c(Cl)cc2c1=O (racemic) [Halofuginone] + C[C@]1(O)C[C@@H](c2nc(-c3ccc4ccc(-c5ccccc5)nc4c3)c3c(N)nccn32)C1 [Linsitinib] (partner 1 µM)
Procedure, shortened: as §1

| Cell Line | relative viability (Cediranib + Palbociclib; first compound 0.04 µM) | relative viability (Cediranib + Palbociclib; first compound 0.1265 µM) | relative viability (Cediranib + Palbociclib; first compound 0.4 µM) | relative viability (Cediranib + Palbociclib; first compound 1.265 µM) | relative viability (Cediranib + Palbociclib; first compound 4 µM) | relative viability (Cediranib + Decitabine; first compound 0.04 µM) | relative viability (Cediranib + Decitabine; first compound 0.1265 µM) | relative viability (Cediranib + Decitabine; first compound 0.4 µM) | relative viability (Cediranib + Decitabine; first compound 1.265 µM) | relative viability (Cediranib + Decitabine; first compound 4 µM) | relative viability (Decitabine + Foretinib; first compound 0.04 µM) | relative viability (Decitabine + Foretinib; first compound 0.1265 µM) | relative viability (Decitabine + Foretinib; first compound 0.4 µM) | relative viability (Decitabine + Foretinib; first compound 1.265 µM) | relative viability (Decitabine + Foretinib; first compound 4 µM) | relative viability ([1]; first compound 0.001 µM) | relative viability ([1]; first compound 0.003162 µM) | relative viability ([1]; first compound 0.01 µM) | relative viability ([1]; first compound 0.03162 µM) | relative viability ([1]; first compound 0.1 µM) |
| --- | --- | --- | --- | --- | --- | --- | --- | --- | --- | --- | --- | --- | --- | --- | --- | --- | --- | --- | --- | --- |
| LOU-NH91 | 0.55 | 0.561 | 0.51 | 0.513 | 0.533 | 0.787 | 0.831 | 0.81 | 0.792 | 0.8 | 0.56 | 0.913 | 0.726 | 0.739 | 0.756 | 0.97 | 0.977 | 0.97 | 0.977 | 0.842 |
| LU99A | 0.422 | – | 0.361 | 0.408 | 0.518 | 0.936 | – | 0.844 | 0.863 | 0.936 | 0.766 | 0.814 | 0.874 | 0.625 | 0.486 | 0.634 | 0.477 | 0.522 | 0.515 | 0.45 |
| LXF-289 | 0.617 | – | 0.569 | 0.566 | 0.609 | 0.397 | – | 0.371 | 0.385 | 0.411 | 0.713 | 0.541 | 0.399 | 0.289 | 0.269 | 0.938 | 1.05 | 0.877 | 0.954 | 0.923 |
| NCI-H23 | 0.585 | 0.601 | 0.547 | 0.429 | 0.56 | 0.327 | 0.355 | 0.31 | 0.312 | 0.339 | 0.692 | 0.533 | 0.393 | 0.39 | 0.359 | 0.656 | 0.573 | 0.556 | 0.692 | 0.211 |
| NCI-H322M | 0.46 | 0.589 | 0.464 | 0.492 | 0.524 | 0.606 | 0.837 | 0.715 | 0.688 | 0.654 | 0.818 | 0.872 | 0.669 | 0.485 | 0.473 | 0.919 | 1.02 | 0.907 | 1.04 | 0.926 |
| NCI-H358 | 0.142 | 0.177 | 0.129 | 0.13 | 0.14 | 0.214 | 0.256 | 0.215 | 0.186 | 0.213 | 0.53 | 0.406 | 0.274 | 0.142 | 0.136 | 0.779 | 0.707 | 0.629 | 0.273 | 0.19 |
| NCI-H441 | 0.202 | 0.258 | 0.22 | 0.205 | 0.275 | 0.288 | 0.234 | 0.275 | 0.251 | 0.286 | 0.396 | 0.401 | 0.347 | 0.25 | 0.325 | 0.6 | 0.651 | 0.525 | 0.561 | 0.353 |
| NCI-H460 | 0.196 | 0.175 | 0.21 | 0.161 | 0.202 | 0.505 | 0.47 | 0.485 | 0.479 | 0.587 | 0.948 | 0.816 | 0.619 | 0.43 | 0.193 | 0.696 | 0.833 | 0.78 | 0.404 | 0.0417 |
| NCI-H520 | 0.262 | 0.22 | 0.175 | 0.162 | 0.179 | 0.572 | 0.588 | 0.502 | 0.488 | 0.459 | 0.732 | 0.691 | 0.584 | 0.387 | 0.343 | 0.997 | 0.85 | 0.994 | 0.667 | 0.422 |
| NCI-H647 | 0.349 | 0.385 | 0.336 | 0.457 | 0.448 | 0.415 | 0.414 | 0.448 | 0.349 | 0.405 | 0.966 | 0.919 | 0.509 | 0.35 | 0.234 | 1.35 | 1.06 | 1.03 | 0.665 | 0.173 |
| NCI-H650 | 0.381 | 0.321 | 0.334 | 0.34 | 0.308 | 0.315 | 0.271 | 0.302 | 0.302 | 0.348 | 0.929 | 0.667 | 0.506 | 0.363 | 0.319 | 1.03 | 0.924 | 0.877 | 0.811 | 0.457 |
| NCI-H661 | 0.452 | 0.441 | 0.405 | 0.391 | 0.442 | 0.663 | 0.598 | 0.529 | 0.531 | 0.588 | 1.02 | 0.966 | 0.777 | 0.6 | 0.554 | 0.677 | 0.589 | 0.537 | 0.627 | 0.39 |
| NCI-H727 | 0.649 | 0.736 | 0.703 | 0.616 | 0.644 | 0.818 | 0.692 | 0.793 | 0.894 | 0.909 | 0.669 | 0.675 | 0.651 | 0.775 | 0.483 | 0.324 | 0.427 | 0.415 | 0.243 | 0.132 |
| NCI-H838 | 0.229 | 0.228 | 0.218 | 0.181 | 0.214 | 0.497 | 0.376 | 0.432 | 0.383 | 0.506 | 0.716 | 0.492 | 0.357 | 0.387 | 0.301 | 1.03 | 0.857 | 0.94 | 0.549 | 0.127 |
| NCI-H1355 | 0.413 | 0.426 | 0.367 | 0.39 | 0.423 | 0.331 | 0.359 | 0.353 | 0.367 | 0.429 | 0.568 | 0.596 | 0.436 | 0.374 | 0.305 | 0.825 | 0.819 | 0.832 | 0.822 | 0.61 |
| NCI-H1395 | 0.622 | 0.615 | 0.629 | 0.623 | 0.535 | 0.717 | 0.769 | 0.675 | 0.712 | 0.77 | 0.798 | 0.801 | 0.687 | 0.586 | 0.55 | 1.17 | 1.62 | 1.2 | 0.961 | 0.776 |
